# Measured values taken from patent US20220280513A1, “ENHANCING THE ANTIVIRAL EFFICACY OF RNA VIRUS INHIBITION BY COMBINATION WITH MODULATORS OF PYRIMIDINE METABOLISM” (The Board of Trustees of the Leland Stanford Junior …, priority 2019, published 2022).
# Tests used:
# recombinant human UCK2 = target: T1, recombinant human UCK2 (Homo sapiens, UniProt Q9BZX2); assay: In vitro enzyme activity assay with recombinant human UCK2 (PK/LDH-coupled, UV 340 nm); format: biochemical
# T1 construct: 6xHis (C); made in house; host or cells: E. coli BL21(DE3)
# T1 sequence (Q9BZX2 1-261): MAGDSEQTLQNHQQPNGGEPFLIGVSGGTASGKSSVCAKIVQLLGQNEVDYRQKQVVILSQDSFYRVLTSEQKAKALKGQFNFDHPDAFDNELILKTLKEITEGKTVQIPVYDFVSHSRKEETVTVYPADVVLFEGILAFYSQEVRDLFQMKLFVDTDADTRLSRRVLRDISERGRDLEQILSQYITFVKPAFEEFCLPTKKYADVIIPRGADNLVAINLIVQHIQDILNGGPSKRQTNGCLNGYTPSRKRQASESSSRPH
# Excerpt: In order to guide our SAR studies, we developed an enzymatic assay to evaluate the inhibitory effect of each CPU analog against recombinant human UCK2, which was expressed and purified in E. coli. A continuous assay system was optimized by coupling UCK2 activity to the pyruvate kinase (PK) reaction, which in turn was coupled to lactate dehydrogenase (LDH). Overall reaction progress was continuously monitored by detecting the UV absorption change at 340 nm, which was correlated with the ATP consumption by UCK2. The effect of 250 μM of each CPU analog on UCK2 activity was evaluated in the presence of 50 μM uridine. […] We then individually measured the steady state kinetic parameters of UCK2 using uridine, CPU and 5-F-CPU as substrates. Their KM values were 86, 25, and 41 μM, and their kcat/KM values were 2.6×10^5, 1.5×10^5, and 7.3×10^4 s^−1 M^−1 (FIG. 5B).
# Cloning, expression and purification of recombinant human UCK2 and CMPK1: Uridine cytidine kinase 2 (UCK2) was cloned into the pET-21a(+) vector using Ndel and Notl as restriction sites. […] The resulting plasmid was transformed into E. coli BL21(DE3) cells by electroporation, recovered in SOC at 37° C. for 1 h and plated onto LB agar plates with kanamycin overnight at 37° C. A single, isolated colony was inoculated into 30 mL LB supplemented with 50 μg/mL kanamycin and grown at 37° C. with shaking for 15 h. The next day, these cells were used to inoculate 1 L autoclaved LB with 50 μg/mL kanamycin. The flask was shaken at 37° C. When an optical density (OD600) of 0.7 was reached, protein expression was induced with 0.5 mM isopropyl β-D-1-thiogalactopyranoside (IPTG). The temperature was changed to 18° C. and flasks were shaken for an additional 15 h. The cell pellets were collected by spinning the media at 5000 rpm for 10 min. The pellets obtained were frozen by liquid nitrogen and stored in −80° C. for protein purification. Cell pellets were thawed and resuspended in lysis buffer containing Tris (40 mM, pH 7.5), NaCl (10 mM), imidazole (10 mM), DTT (1 mM). Cells were lysed by sonication and centrifuged at 25,000 g for 1 h. The supernatant was incubated with a slurry of Ni-NTA resin for 1 h at 4° C. and loaded onto a column. The nickel column wash buffer was Tris (40 mM, pH 7.5), NaCl (10 mM), DTT (1 mM) and each wash step contained increasing concentrations of imidazole (10, 50, or 250 mM). After SDS-PAGE confirmation of the protein fractions, protein was further purified using fast protein liquid chromatography (FPLC) using buffer A (50 mM Tris-HCl pH 8, 1 mM dithiothreitol (DTT), 10% glycerol) and elution buffer B (50 mM Tris-HCl pH 8, 1mM dithiothreitol (DTT), 10% glycerol with 500 mM NaCl) with changing gradient over a 20 minute from 2% to 100% Buffer B. FPLC eluents containing the protein was concentrated using Am icon centrifugal filter with 3K cut-off and the enzyme was stored in storage buffer (50 mM Tris-HCl pH 7.5, 10% glycerol). Human cytidine monophosphate kinase 1 (CMPK1) was purified as previously described (Deans et al., 2016).
# In vitro enzyme activity assays with recombinant human UCK2: To continuously monitor reaction progress spectrophotometrically, ATP hydrolysis was coupled to NADH oxidation via pyruvate kinase (PK) and lactate dehydrogenase (LDH). Reactions were conducted at room temperature in 100 μL in 96-well plates (Greiner Bio-One, UV-Star, Half Area). Mixtures contained 20 mM HEPES (pH 7.2), 100 mM KCl, 2 mM MgCl2, 300 μM ATP, 0-500 μM uridine, 0-500 μM CPU analogs, 10 nM UCK2, 1 mM phosphoenolpyruvate, 500 μM NADH and 20 units/mL of PK and LDH. Progress was monitored in the linear region using a Biotek Synergy HT and kinetic and inhibition constants were determined using GraphPad Prism 7 (GraphPad Software).
# DENV-2 virus = assay: DENV antiviral assay, DENV-Luc replication in A549 cells (FIGS. 8 and 9); format: cell-based, dengue serotype 2 (DENV-2) strain 16681
# Method: DENV-Luc reporter virus generation: The design of the pDENV-Luc infectious clone derived from dengue serotype 2 (DENV-2) strain 16681 was described in detail by Marceau et al (Marceau et al., 2016). The plasmid was linearized with Xbal and in vitro transcribed into the genomic RNA of DENV-Luc virus using the T7 Megascript Kit (Ambion) in the presence of m7G(5′)ppp(5′)G RNA Cap Structure Analog (NEB). 5 μg DENV-Luc RNA was electroporated into 2×10^6 Vero cells. The transfected cells were resuspended with Dulbecco's modified Eagle's medium (DMEM; Invitrogen) with 10% FBS and 100 U/ml penicillin-streptomycin and transferred into a T-175 flask incubated at 37° C. with 5% CO2. Supernatants were collected and replenished with fresh medium every 24 h from day 17 to 24 post-transfection, pooled together, clarified by centrifugation and stored in aliquots at −80° C. The amount of infectious DENV-Luc virus in the stock was titrated using the TCID50 assay and calculated by the Spearman & Kärber algorithm as described previously (Hierholzer and Killington, 1996).
# DENV antiviral assays (For FIGS. 8 and 9): A549 cells were plated overnight at 5,000 cells/well in 96-well plates in complete DMEM and incubated for 24 h at 37° C. Cells were then treated with pyrimidine de novo synthesis inhibitors, and/or salvage inhibitors, and/or R1479 in DMEM supplemented with 20 μM uridine. Four hours after drug addition, cells were infected with DENV-2 virus at a MOI=0.1. After 72 h, DENV-Luc replication was monitored by the production of Renilla luciferase, which was measured using the Renilla-Glo Luciferase Assay System (Promega) according to the specifications of the manufacturer. For the accompanying cell viability assay, A549 cells were seeded at 5,000 cells/well in 96-well plates in complete DMEM and incubated for 24 h at 37° C. Cell were then treated with pyrimidine de novo synthesis inhibitors, and/or salvage inhibitors, and/or R1479 in DMEM supplemented with 20 μM uridine. Following 48 h treatment, cell viability was monitored by ATP levels, which was measured using the CellTiter-Glo Luciferase Assay System (Promega) according to the specifications of the manufacturer.
structure (smiles),measurement,setting,value
"O=c1ccn([C@@H]2C=C(CO)[C@@H](O)[C@H]2O)c(=O)[nH]1 [CPU, 1-((1R,4R,5S)-4,5-dihydroxy-3-(hydroxymethyl)cyclopent-2-en-1-yl)pyrimidine-2,4(1H,3H)-dione]",UCK2 substrate or not (ATP consumption),recombinant human UCK2; 250 μM analog in the presence of 50 μM uridine,substrates of UCK2
same,rate of UMP synthesis,"recombinant human UCK2; added to assay mixture containing UCK2, uridine (50 μM) and ATP",dose-dependent decrease
same,"dengue virus replication, combination","DENV-2 virus; CPU (500 μM) combined with 1 μM GSK983, 20 μM uridine",suppressed dengue virus
same,antiviral activity as single agent,"DENV-2 virus; single agents, 20 μM uridine",neither GSK983 nor CPU were effective
